According to the supplement of paper PMC11451515:

Tests used:
Details in all cases: 48 h
NOMO1 [1] = assay: cell viability relative to DMSO control; higher = less cytotoxic
Procedure, shortened: (§1)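 Library compounds in DMSO were pin-dosed into 1536-well plates (5 μl) holding NOMO1 or SEM (500 cells/well) or P12-Ichikawa (1000 cells/well) leukemia cells, across an 11-point threefold series of 47 μM to 0.79 nM. Each cell line had been adapted for at least four passages in each medium. CellTiter-Glo One luminescence was read after 48 h at 37°C. Viability is the per-plate percentage relative to DMSO wells, with cell-free wells as background.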

P12-Ichikawa [2] = assay: as above
Procedure, shortened: as §1

SEM cells [3] = assay: as above
Procedure, shortened: as §1

NOMO1 [4] = assay: AUC of viability dose-response curve (% viability x log10 dose units); higher = less sensitive
Procedure, shortened: (§2)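 Leukemia cells adapted to each medium (500 or 1000 cells/well, 1536-well plates) were exposed to library compounds in DMSO for 48 h at 37°C at 11 threefold doses, 47 μM to 0.79 nM. Luminescence by CellTiter-Glo One was normalised per plate to DMSO and cell-free wells, then fitted with a four-parameter log-logistic curve on log10 dose. Curves above full viability were scaled and quality-control failures removed before area under the curve was integrated by trapezoidal rule.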

P12-Ichikawa [5] = assay: as above
Procedure, shortened: as §2

SEM cells [6] = assay: as above
Procedure, shortened: as §2

COC(=O)[C@H](c1ccccc1Cl)N1CCc2sccc2C1
cell viability [%]
Details	NOMO1 [1]	P12-Ichikawa [2]	SEM cells [3]
HPLM + 10% dialyzed FBS, 0.000781 µM	103	95.8	75.5
HPLM + 10% dialyzed FBS, 0.00234 µM	110	99.1	89.5
HPLM + 10% dialyzed FBS, 0.00702 µM	127	100	105
HPLM + 10% dialyzed FBS, 0.0211 µM	117	109	110
HPLM + 10% dialyzed FBS, 0.0632 µM	109	108	96.3
HPLM + 10% dialyzed FBS, 0.19 µM	104	113	111
HPLM + 10% dialyzed FBS, 0.569 µM	117	107	106
HPLM + 10% dialyzed FBS, 1.71 µM	37.4	110	120
HPLM + 10% dialyzed FBS, 5.12 µM	39.5	102	109
HPLM + 10% dialyzed FBS, 15.4 µM	24.8	15.7	121
HPLM + 10% dialyzed FBS, 46.1 µM	24.8	12.9	111
RPMI 5 mM glucose + 10% FBS, 0.000781 µM	87.8	101	87.5
RPMI 5 mM glucose + 10% FBS, 0.00234 µM	109	113	80.4
RPMI 5 mM glucose + 10% FBS, 0.00702 µM	89.1	120	97.2
RPMI 5 mM glucose + 10% FBS, 0.0211 µM	92.3	117	98.9
RPMI 5 mM glucose + 10% FBS, 0.0632 µM	103	120	93.3
RPMI 5 mM glucose + 10% FBS, 0.19 µM	93.7	125	102
RPMI 5 mM glucose + 10% FBS, 0.569 µM	97.4	122	106
RPMI 5 mM glucose + 10% FBS, 1.71 µM	21.7	113	103
RPMI 5 mM glucose + 10% FBS, 5.12 µM	20.9	115	107
RPMI 5 mM glucose + 10% FBS, 15.4 µM	15.9	21.4	107
RPMI 5 mM glucose + 10% FBS, 46.1 µM	14	14.1	108
RPMI 5 mM glucose + 10% dialyzed FBS, 0.000781 µM	81	91.6	84.1
RPMI 5 mM glucose + 10% dialyzed FBS, 0.00234 µM	90.5	105	84.1
RPMI 5 mM glucose + 10% dialyzed FBS, 0.00702 µM	101	109	86.5
RPMI 5 mM glucose + 10% dialyzed FBS, 0.0211 µM	94.4	111	108
RPMI 5 mM glucose + 10% dialyzed FBS, 0.0632 µM	100	115	110
RPMI 5 mM glucose + 10% dialyzed FBS, 0.19 µM	103	111	91.6
RPMI 5 mM glucose + 10% dialyzed FBS, 0.569 µM	102	118	95.3
RPMI 5 mM glucose + 10% dialyzed FBS, 1.71 µM	36.6	117	135
RPMI 5 mM glucose + 10% dialyzed FBS, 5.12 µM	22.8	104	116
RPMI 5 mM glucose + 10% dialyzed FBS, 15.4 µM	23.6	45.9	122
RPMI 5 mM glucose + 10% dialyzed FBS, 46.1 µM	22.2	18.7	99.5

AUC of viability dose-response curve
Details	NOMO1 [4]	P12-Ichikawa [5]	SEM cells [6]
HPLM + 10% dialyzed FBS	357	414	449
RPMI 5 mM glucose + 10% FBS	328	416	440
RPMI 5 mM glucose + 10% dialyzed FBS	343	427	432
